According to BindingDB's records for PubMed 2905001 (Mcneil Pharmaceutical, 1988):
pKi: −log10 of the molar value. Values joined by “and” are separate entries in the source; they are usually repeats but may differ in a detail not shown here. Equal values may be shown once. Where a name gives a salt, the structure may show the parent alone.

Experiments:
[1] = molecular target: 5-hydroxytryptamine receptor 2A (Rattus norvegicus, UniProt P14842)
[2] = molecular target: Sodium-dependent dopamine transporter (Rattus norvegicus, UniProt P23977)
Sequence of Sodium-dependent dopamine transporter (P23977 whole entry): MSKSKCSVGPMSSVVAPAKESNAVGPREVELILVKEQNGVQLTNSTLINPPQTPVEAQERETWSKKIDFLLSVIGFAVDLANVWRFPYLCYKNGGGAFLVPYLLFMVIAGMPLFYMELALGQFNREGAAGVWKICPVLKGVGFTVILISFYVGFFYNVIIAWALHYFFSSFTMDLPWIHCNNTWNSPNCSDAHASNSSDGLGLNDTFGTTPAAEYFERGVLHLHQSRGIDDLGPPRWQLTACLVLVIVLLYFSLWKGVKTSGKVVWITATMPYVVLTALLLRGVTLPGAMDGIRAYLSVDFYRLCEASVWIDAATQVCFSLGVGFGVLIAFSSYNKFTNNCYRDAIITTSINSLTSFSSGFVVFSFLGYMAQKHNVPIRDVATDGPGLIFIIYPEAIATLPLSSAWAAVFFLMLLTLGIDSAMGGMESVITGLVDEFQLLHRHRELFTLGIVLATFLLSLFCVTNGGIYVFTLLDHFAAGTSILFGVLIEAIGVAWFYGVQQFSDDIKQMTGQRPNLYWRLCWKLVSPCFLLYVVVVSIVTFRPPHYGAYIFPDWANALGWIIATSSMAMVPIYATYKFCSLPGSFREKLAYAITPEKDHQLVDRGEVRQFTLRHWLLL

[3] = molecular target: Norepinephrine transporter (Rattus norvegicus, UniProt Q9JIA2)
[4] = molecular target: Sodium-dependent serotonin transporter (Rattus norvegicus, UniProt P31652)
Sequence of Sodium-dependent serotonin transporter (P31652 whole entry): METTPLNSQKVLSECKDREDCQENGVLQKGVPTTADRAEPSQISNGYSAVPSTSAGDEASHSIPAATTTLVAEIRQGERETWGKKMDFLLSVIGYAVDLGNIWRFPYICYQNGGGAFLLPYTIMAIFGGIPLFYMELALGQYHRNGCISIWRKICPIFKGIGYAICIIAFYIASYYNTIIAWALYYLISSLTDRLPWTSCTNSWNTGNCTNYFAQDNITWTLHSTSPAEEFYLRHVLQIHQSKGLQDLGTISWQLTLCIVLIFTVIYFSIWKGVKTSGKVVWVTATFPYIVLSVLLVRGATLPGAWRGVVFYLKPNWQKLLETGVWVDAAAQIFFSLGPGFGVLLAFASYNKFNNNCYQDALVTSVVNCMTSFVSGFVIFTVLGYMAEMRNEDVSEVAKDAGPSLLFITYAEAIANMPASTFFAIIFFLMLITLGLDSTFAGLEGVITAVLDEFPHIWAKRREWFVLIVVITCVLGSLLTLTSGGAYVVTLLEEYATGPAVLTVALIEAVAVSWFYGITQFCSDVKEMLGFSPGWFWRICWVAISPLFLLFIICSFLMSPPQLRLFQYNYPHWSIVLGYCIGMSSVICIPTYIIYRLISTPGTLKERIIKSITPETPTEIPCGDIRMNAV

[5] = molecular target: T1, Alpha-1A adrenergic receptor (Rattus norvegicus, UniProt P43140)
T1 sequence (P43140 whole entry): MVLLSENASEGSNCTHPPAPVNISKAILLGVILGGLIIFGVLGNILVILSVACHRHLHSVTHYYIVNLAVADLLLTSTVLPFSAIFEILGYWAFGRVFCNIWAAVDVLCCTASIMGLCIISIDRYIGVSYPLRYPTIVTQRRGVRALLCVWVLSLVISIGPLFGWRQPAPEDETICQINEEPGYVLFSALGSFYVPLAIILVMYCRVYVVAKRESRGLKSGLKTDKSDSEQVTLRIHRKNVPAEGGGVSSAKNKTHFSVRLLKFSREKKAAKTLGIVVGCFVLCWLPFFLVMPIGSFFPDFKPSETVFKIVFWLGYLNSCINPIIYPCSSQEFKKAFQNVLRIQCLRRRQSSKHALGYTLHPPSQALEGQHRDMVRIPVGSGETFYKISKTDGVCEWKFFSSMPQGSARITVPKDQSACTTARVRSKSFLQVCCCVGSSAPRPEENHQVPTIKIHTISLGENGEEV

Sequence of 5-hydroxytryptamine receptor 2A (P14842 whole entry): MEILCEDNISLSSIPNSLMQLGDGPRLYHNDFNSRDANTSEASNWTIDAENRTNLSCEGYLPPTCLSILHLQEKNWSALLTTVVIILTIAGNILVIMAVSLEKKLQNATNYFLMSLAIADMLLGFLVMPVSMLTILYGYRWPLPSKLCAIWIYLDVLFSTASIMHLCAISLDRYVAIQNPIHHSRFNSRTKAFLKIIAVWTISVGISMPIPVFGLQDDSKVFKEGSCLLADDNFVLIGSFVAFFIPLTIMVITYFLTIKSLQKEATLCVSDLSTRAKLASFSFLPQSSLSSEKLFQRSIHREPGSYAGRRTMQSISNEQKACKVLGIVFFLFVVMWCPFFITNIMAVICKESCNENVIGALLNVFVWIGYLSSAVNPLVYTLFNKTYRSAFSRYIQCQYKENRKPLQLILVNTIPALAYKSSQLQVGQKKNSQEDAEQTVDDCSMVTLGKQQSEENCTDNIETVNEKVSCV

| Structure (SMILES) | pKi [1] | pKi [2] | pKi [3] | pKi [4] | pKi [5] |
| --- | --- | --- | --- | --- | --- |
| c1ccc2c(CCC3CCNCC3)c[nH]c2c1 | 7.30 | 5.98 | 6.29 | 8.76 |  |
| CSc1ccc(C2CN3CCCC3c3ccccc32)cc1 (stereo unspecified) |  | 7.16 |  |  |  |
| O=c1n(CCCN2CCN(c3cccc(Cl)c3)CC2)nc2ccccn12 [2-{3-[4-(3-chlorophenyl)piperazin-1-yl]propyl}[1,2,4]triazolo[4,3-a]pyridin-3(2H)-one] |  | < 5.00 | 5.42 |  | 7.08 |
| COCCCC/C(=N\OCCN)c1ccc(C(F)(F)F)cc1 [(1E)-5-methoxy-1-[4-(trifluoromethyl)phenyl]pentan-1-one O-(2-aminoethyl)oxime] |  | < 5.00 | 6.52 |  |  |
| COc1ccc(OC[C@H]2CN(C)CC[C@@H]2c2ccccc2)cc1 [(3R,4S)-3-(4-Methoxy-phenoxymethyl)-1-methyl-4-phenyl-piperidine] |  | 5.98 |  |  |  |
| COCCCCC(=NOCCN)c1ccc(Cl)cc1 [CAS_68717] | 6.00 | 6.34 | 8.18 | 8.56 |  |
| CN(C)CCCN1c2ccccc2CCc2ccc(Cl)cc21 [CLOMIPRAMINE HYDROCHLORIDE] |  | 5.42 |  |  |  |
| CSc1ccc([C@H]2CN3CCC[C@H]3c3ccccc32)cc1 [McN-5652-X-68] | 6.85 |  |  |  | 6.56 |
| CSc1ccc([C@@H]2CN3CCC[C@@H]3c3ccccc32)cc1 [McN-5652-Z-68] | 6.03 and 6.68 |  |  |  | 6.67 and 6.50 |
| CN(C)C/C=C(/c1ccc(Br)cc1)c1cccnc1 [cis-[3-(4-Bromo-phenyl)-3-pyridin-3-yl-allyl]-dimethyl-amine;HCl] |  | < 5.00 |  |  |  |
